Target: T1, human SGLT2 (Homo sapiens, UniProt P31639)
T1 construct: expressed in transfected cells
T1 sequence (P31639 1-672): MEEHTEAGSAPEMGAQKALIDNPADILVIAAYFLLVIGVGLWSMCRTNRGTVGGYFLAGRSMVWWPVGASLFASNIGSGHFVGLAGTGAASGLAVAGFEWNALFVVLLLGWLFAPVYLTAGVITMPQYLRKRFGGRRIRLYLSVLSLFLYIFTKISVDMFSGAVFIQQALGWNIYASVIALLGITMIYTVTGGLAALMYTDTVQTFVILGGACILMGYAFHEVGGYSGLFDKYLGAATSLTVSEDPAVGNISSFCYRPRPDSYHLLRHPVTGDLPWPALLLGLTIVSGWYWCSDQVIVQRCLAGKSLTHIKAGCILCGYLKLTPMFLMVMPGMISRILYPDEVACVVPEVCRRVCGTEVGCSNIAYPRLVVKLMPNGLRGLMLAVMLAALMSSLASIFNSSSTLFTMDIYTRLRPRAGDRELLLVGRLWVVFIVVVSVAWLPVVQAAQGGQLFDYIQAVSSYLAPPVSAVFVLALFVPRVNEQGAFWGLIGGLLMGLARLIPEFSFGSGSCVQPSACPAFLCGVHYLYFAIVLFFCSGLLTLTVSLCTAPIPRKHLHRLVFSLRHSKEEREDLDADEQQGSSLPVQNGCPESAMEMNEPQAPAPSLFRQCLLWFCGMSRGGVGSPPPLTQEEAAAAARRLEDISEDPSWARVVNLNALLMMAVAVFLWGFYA
Assay: Assay for inhibitory effects on human SGLT2 activity (uptake of methyl-α-D-glucopyranoside in CS2-5E cells)
Format: cell-based
Settings: inhibition of 14C-labeled α-MG uptake (1 mM), CHO-K1 cells stably expressing human SGLT2 (CS2-5E), 37° C., 1 hour
Protocol: Assay for Inhibitory Effects on Human SGLT2 Activity 1) Cloning and Construction of the Vector Expressing Human SGLT2 The cDNA library was prepared for PCR amplification by reverse transcription from total RNA deprived from human kidney (Ori gene) using oligo-dT as a primer. Using this cDNA library as a template, the DNA fragment coding 2 to 2039 bp of human SGLT2 (ACCESSION: M95549, M95299), which was reported by R. G. Wells et al., was amplified by PCR method and inserted into the multi-cloning site of pcDNA3.1 (−) (Invitrogen). The DNA sequence inserted was perfectly matched to the previously reported sequence. 2) Establishment of Cell Line Stably Expressing Human SGLT2 The expression vector of human SGLT2 was digested by Sca I into a linear DNA. The linear DNA was transfected into CHO-K1 cells by means of lipofection (Effectene Transfection Reagent: QIAGEN). Neomycin resistant cell lines were selected by culture in the medium containing G418 (1 mg/mL, LIFE TECHNOLOGIES), and then the activity against the uptake of methyl-α-D-glucopyranoside was measured by the method described below. […] Radioactivity was measured by means of micro-scintillation counter TopCount (Packard). One hundred % was set to the difference between the uptake in the control group and the basal uptake, and the uptake of methyl α-D-glucopyranoside at each drug concentration were calculated. […]

IC50: 86 nM
Compound: COc1ccc(Cc2ccccc2O[C@@H]2O[C@H](CF)[C@@H](O)[C@H](O)[C@H]2O)cc1 [Example 1, 2-(4-Methoxybenzyl)phenyl 6-deoxy-6-fluoro-β-D-glucopyranoside]

Source: US20070185197A1, “Phenol derivative, medicinal composition containing the same, and medicinal use thereof” (priority 2004, published 2007)
